The values that follow come from patent US7049340B1, “Neuroprotective and retinoprotective ophthalmologic drugs” (priority 1999, dated 2006).

The subject of the series is healthy subject. The series is described as follows: General arterial pressure at doses that improve field of vision. The format is in vivo, human. Conditions: healthy subject. An excerpt:
Effective doses for producing effects in the ophtalmologic field are desirably lower than doses that would induce general arterial hypotension in a subject with normal pressure. Clearly, the doses that can be used can be higher in subjects with hypertension, although this is not necessary, since the desired effect is that obtained in the ophtalmologic field.

With `CCOC(=O)[C@H](CCc1ccccc1)N[C@@H](C)C(=O)N1[C@H](C(=O)O)C[C@@H]2CCC[C@@H]21` [ramipril], the “effect on arterial pressure of doses that improve field of vision” value was “do not cause arterial hypertension”.
